pEC50, pIC50: −log10 of the molar value.
Columns and labels:
[1] = molecular target: T1, human GPCR sphingosine 1-phosphate receptor 2 (S1PR2) (Homo sapiens, UniProt O95136); assay: S1P2 antagonist assay (Ca2+ flux, S1P at EC80); type: cell-based; conditions: CHO-S1PR2 cells, highest concentration 20 μM
T1 construct: host or cells: CHO
In short: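 CHO cells stably overexpressing human S1PR2, serum-starved 1 h and loaded with Fluo8 dye, were read for 3 min after compound addition, then stimulated with S1P at EC80 after 15 min at 37 °C. Top concentration 20 μM in a 10-point 1/3 series; Ca2+ fluorescence ratio normalized to vehicle and S1P EC80, giving EC50.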

[2] = molecular target: T2, human GPCR sphingosine 1-phosphate receptor 1 (S1PR1) (Homo sapiens, UniProt P21453); assay: S1PR1 selectivity assay (Ca2+ flux, antagonist); type: cell-based; conditions: S1P1 antagonist EC50, CHO cells overexpressing human S1PR1 and Gq protein
T2 construct: host or cells: CHO
T2 sequence (P21453 whole entry): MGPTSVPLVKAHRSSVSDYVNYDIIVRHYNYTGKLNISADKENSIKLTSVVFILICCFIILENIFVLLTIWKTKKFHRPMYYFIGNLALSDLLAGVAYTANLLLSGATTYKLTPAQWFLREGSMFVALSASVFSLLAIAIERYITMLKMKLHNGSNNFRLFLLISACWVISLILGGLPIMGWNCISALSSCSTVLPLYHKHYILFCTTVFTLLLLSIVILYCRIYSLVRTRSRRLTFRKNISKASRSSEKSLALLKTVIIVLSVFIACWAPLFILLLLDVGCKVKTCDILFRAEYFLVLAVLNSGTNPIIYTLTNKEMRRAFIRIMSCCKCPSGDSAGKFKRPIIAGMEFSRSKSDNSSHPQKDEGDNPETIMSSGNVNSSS
In short: (§1)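 CHO cells stably overexpressing human S1PR1 or S1PR5 with Gq were preincubated with compound 15 min at 37 °C, then stimulated with S1P at EC80 (S1PR1) or an S1PR5-specific agonist (S1PR5). Ca2+ fluorescence was read for 3 min; 10-point 1/3 dilutions from 20 μM final, normalized to vehicle and EC80 trigger, gave EC50.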

[3] = molecular target: T3, human GPCR sphingosine 1-phosphate receptor 5 (S1PR5) (Homo sapiens, UniProt Q9H228); assay: S1PR5 selectivity assay (Ca2+ flux, antagonist, S1PR5 specific agonist trigger); type: cell-based; conditions: S1P5 antagonist EC50, CHO cells overexpressing human S1PR5 and Gq protein
T3 construct: host or cells: CHO
T3 sequence (Q9H228 whole entry): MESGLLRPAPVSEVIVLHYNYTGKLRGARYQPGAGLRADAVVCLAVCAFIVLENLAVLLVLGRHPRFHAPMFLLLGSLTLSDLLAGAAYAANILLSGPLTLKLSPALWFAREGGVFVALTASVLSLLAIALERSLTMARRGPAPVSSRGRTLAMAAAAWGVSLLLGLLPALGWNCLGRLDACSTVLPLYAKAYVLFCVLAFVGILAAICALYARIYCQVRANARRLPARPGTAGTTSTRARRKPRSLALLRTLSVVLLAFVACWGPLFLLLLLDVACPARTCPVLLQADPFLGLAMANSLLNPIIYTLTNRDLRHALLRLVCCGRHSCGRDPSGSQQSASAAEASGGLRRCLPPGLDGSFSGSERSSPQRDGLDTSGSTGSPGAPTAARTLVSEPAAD
In short: as §1

S1PR2 = molecular target: T4, S1PR2 (Homo sapiens, UniProt O95136); assay: GTP-γS binding assay ([35S]GTPγS, S1P at EC80, S1PR2 membranes); type: biochemical; conditions: membranes from stable cell line over expressing S1PR2, read-out: S1PR2 EC
T4 construct: expressed in transfected cells
T4 sequence (O95136 whole entry): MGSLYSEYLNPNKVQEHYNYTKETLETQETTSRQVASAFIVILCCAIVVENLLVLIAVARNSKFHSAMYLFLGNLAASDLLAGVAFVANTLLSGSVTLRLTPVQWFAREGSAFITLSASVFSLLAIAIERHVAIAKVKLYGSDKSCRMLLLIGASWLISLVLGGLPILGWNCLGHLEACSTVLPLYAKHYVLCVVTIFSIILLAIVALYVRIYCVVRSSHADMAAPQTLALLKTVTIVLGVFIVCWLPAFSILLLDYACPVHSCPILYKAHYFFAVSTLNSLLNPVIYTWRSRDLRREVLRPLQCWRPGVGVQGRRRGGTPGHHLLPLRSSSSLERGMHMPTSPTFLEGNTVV
In short: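 Compounds tested against S1P at its EC80 on membranes (2.5 μg/well) from a stable S1PR2-overexpressing line, pre-incubated with 1 μM GDP 15 min at 4 °C. Buffer: 20 mM Tris pH 7.5, 10 mM MgCl2, 100 mM NaCl, 0.1% fatty-acid-free BSA, 50 ug/ml saponin. Incubated 4 h at room temperature; [35S]GTPγS binding read by WGA SPA beads.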

HFL-1 cells [4] = assay: IL8 assay (S1P induced IL-8 production); type: cell-based; conditions: Homo sapiens, HFL1; S1P (1 μM) induced IL-8, HFL-1 cells, without HSA
Description: (§2) S1P is able to induce cytokines such as IL-8 in a process that is S1PR2 dependent (O'Sullivan et al, 2014; Bruennert et al, 2015). This assay is designed to test inhibitory activity of compounds on S1P induced IL-8 on HFL-1 cells, a human fetal lung fibroblast cell line.
Human Fetal Lung cells (HFL-1) are seeded in 96 well plates in growth medium (F12K+10% heat inactivated FBS+1% Pen/strep). After overnight incubation at 37° C., 5% CO2 cells are refreshed with starvation medium without HSA (F12K+1% FBS+1% Pen/strep). On day three, compounds are added (10 point serial dilution, 30 μM highest concentration, ⅓ dilution, 0.3% DMSO final) and plates are incubated for one hour at 37° C., 5% CO2. Subsequently S1P at 1 μM final concentration is added and plates are incubated for 16 to 24 hours at 37° C., 5% CO2 after which the supernatant was collected. IL-8 levels in the supernatant are determined with the IL-8 ELISA of R&D systems.

HFL-1 cells [5] = assay: IL8 assay in the presence of Human Serum Albumin; type: cell-based; conditions: HFL1, S1P (5 μM) induced IL-8, HFL-1 cells, with 2% HSA, read-out: HSA IL8 EC50
Description: as §2
To evaluate the influence of plasma protein binding of Sip as well as compound, the S1P induced IL-8 levels were evaluated in presence of 2% Human Serum Albumin (HSA, equivalent to 40% human serum). By adding 2% HSA, which affects both the activity of the compounds as well as the S1P potency, the physiological condition are reproduced and the shift in potency expected under in vivo serum conditions can be measured.
Human Fetal Lung cells (HFL-1) are seeded in 96 well plates in growth medium (F12K+10% heat inactivated FBS+1% Pen/strep). After overnight incubation at 37° C., 5% CO2 cells are refreshed with starvation medium with HSA (F12K+1% FBS+1% Pen/strep+1.95% HSA). On day three, compounds are added (10 point serial dilution, 30 μM highest concentration, 1/3 dilution, 0.3% DMSO final) and plates are incubated for 1 h at 37° C., 5% CO2. Subsequently S1P at 5 μM final concentration is added and plates are incubated for 16 to 24 h at 37° C., 5% CO2 after which the supernatant was collected. IL-8 levels in the supernatant are determined with the IL-8 ELISA of R&D systems.

T1 sequence (O95136 whole entry): as above

SMILES | pEC50 [1] | pEC50 [2] | pEC50 [3] | pEC50 (S1PR2) | pEC50 (HFL-1 cells [4]) | pIC50 (HFL-1 cells [5])
CCOc1cc(NC(=O)NCc2cc(C)c(-c3cn(C)nc3C(F)(F)F)nn2)cc(C(F)(F)F)n1 [Compound 1, 1-(2-Ethoxy-6-trifluoromethyl-pyridin-4-yl)-3-[5-methyl-6-(1-methyl-3-trifluoromethyl-1H-pyrazol-4-yl)-pyridazin-3-ylmethyl]-urea] | 8.02 | 5.22 | 5.18 | 7.48 | 8.66 | 7.21
CCOc1cc(NC(=O)NCc2cc(C)c(-c3cn(C)nc3C(F)(F)F)nn2)cc(Cl)n1 [Compound 2, 1-(2-Chloro-6-ethoxy-pyridin-4-yl)-3-[5-methyl-6-(1-methyl-3-trifluoromethyl-1H-pyrazol-4-yl)-pyridazin-3-ylmethyl]-urea] | 8.07 | 5.34 | 5.34 | 7.65 | 8.82 | 7.60
CCOc1cc(NC(=O)NC(C)c2cc(C)c(-c3cn(C)nc3C(F)(F)F)nn2)cc(Cl)n1 (centres unmarked) [Compound 3, 1-(2-chloro-6-ethoxy-4-pyridyl)-3-[1-[5-methyl-6-[1-methyl-3-(trifluoromethyl)pyrazol-4-yl]pyridazin-3-yl]ethyl]urea] | 7.59 | ≤ 4.70 | 5.18 | 6.94 | 7.66 | 6.32
Cc1cc(CNC(=O)Nc2cc(OCCO)nc(C(F)(F)F)c2)nnc1-c1cn(C)nc1C(F)(F)F [Compound 4, 1-[2-(2-hydroxyethoxy)-6-(trifluoromethyl)-4-pyridyl]-3-[[5-methyl-6-[1-methyl-3-(trifluoromethyl)pyrazol-4-yl]pyridazin-3-yl]methyl]urea] | 6.46 | ≤ 4.70 | ≤ 4.70 | 6.06 | 6.63 | 6.19
Cc1cc(CNC(=O)Nc2cc(OCC(O)CO)nc(C(F)(F)F)c2)nnc1-c1cn(C)nc1C(F)(F)F (centres unmarked) [Compound 5, 1-[2-(2,3-dihydroxypropoxy)-6-(trifluoromethyl)-4-pyridyl]-3-[[5-methyl-6-[1-methyl-3-(trifluoromethyl)pyrazol-4-yl]pyridazin-3-yl]methyl]urea] | 5.18 | ≤ 4.70 | ≤ 4.70 | 4.95 | 5.81 | 5.00
CCOc1ncc(NC(=O)NCc2cc(C)c(-c3cn(C)nc3C(F)(F)F)nn2)cc1Cl [Compound 8, 1-(5-chloro-6-ethoxy-3-pyridyl)-3-[[5-methyl-6-[1-methyl-3-(trifluoromethyl)pyrazol-4-yl]pyridazin-3-yl]methyl]urea] | 7.66 | ≤ 4.70 | ≤ 4.70 | 6.51 | 7.08 | 6.77
CCOc1cc(NC(=O)NCc2cc(C)c(-c3cn(C)nc3C(F)(F)F)nn2)cc(C#N)n1 [Compound 18, 1-(2-cyano-6-ethoxy-4-pyridyl)-3-[[5-methyl-6-[1-methyl-3-(trifluoromethyl)pyrazol-4-yl]pyridazin-3-yl]methyl]urea] | 7.96 | 5.18 | ≤ 4.70 | 7.45 | 8.34 | 7.54
CCOc1nc(C(F)(F)F)cc(NC(=O)NCc2cc(C)c(-c3cn(C)nc3C(F)(F)F)nn2)c1C [Compound 30, 1-[2-ethoxy-3-methyl-6-(trifluoromethyl)-4-pyridyl]-3-[[5-methyl-6-[1-methyl-3-(trifluoromethyl)pyrazol-4-yl]pyridazin-3-yl]methyl]urea] | 8.21 | 5.35 | 5.48 | 7.58 | 8.82 | 7.42
CCOc1cc(NC(=O)NCc2cc(C)c(-c3cn(C)nc3C(F)(F)F)nn2)cc(C)n1 [Compound 35, 1-(2-ethoxy-6-methyl-4-pyridyl)-3-[[5-methyl-6-[1-methyl-3-(trifluoromethyl)pyrazol-4-yl]pyridazin-3-yl]methyl]urea] | 7.13 | ≤ 4.70 | ≤ 4.70 | 6.62 | 7.21 | 6.73
CCOc1nc(Cl)cc(NC(=O)NCc2cc(C)c(-c3cn(C)nc3C(F)(F)F)nn2)n1 [Compound 38, 1-(6-chloro-2-ethoxy-pyrimidin-4-yl)-3-[[5-methyl-6-[1-methyl-3-(trifluoromethyl)pyrazol-4-yl]pyridazin-3-yl]methyl]urea] | 7.40 | ≤ 4.70 | ≤ 4.70 | 6.96 | 7.50 | 6.70
Cc1cc(CNC(=O)Nc2cc(OCC3(C(F)(F)F)CC3)nc(C(F)(F)F)c2)nnc1-c1cn(C)nc1C(F)(F)F [Compound 39, 1-[[5-methyl-6-[1-methyl-3-(trifluoromethyl)pyrazol-4-yl]pyridazin-3-yl]methyl]-3-[2-(trifluoromethyl)-6-[[1-(trifluoromethyl)cyclopropyl]methoxy]-4-pyridyl]urea] | 6.66 | 5.18 | 5.18 | 5.98 | 6.91 | 5.00
Cc1cc(CNC(=O)Nc2cc(OC3CCOCC3)nc(C(F)(F)F)c2)nnc1-c1cn(C)nc1C(F)(F)F [Compound 40, 1-[[5-methyl-6-[1-methyl-3-(trifluoromethyl)pyrazol-4-yl]pyridazin-3-yl]methyl]-3-[2-tetrahydropyran-4-yloxy-6-(trifluoromethyl)-4-pyridyl]urea] | 6.54 | 5.29 | 5.18 | 5.97 | 6.85 | 5.41
CCOc1cc(NC(=O)NCc2cc(C)c(-c3cn(C)nc3C)nn2)cc(Cl)n1 [Compound 68] | 7.59 | ≤ 4.70 |  | 6.96 | 6.81 | 5.46
Cc1cc(CNC(=O)Nc2cc(C(F)(F)F)nc(OCCO)c2C)nnc1-c1cn(C)nc1C(F)(F)F [Compound 73, 1-[2-(2-hydroxyethoxy)-3-methyl-6-(trifluoromethyl)-4-pyridyl]-3-[[5-methyl-6-[1-methyl-3-(trifluoromethyl)pyrazol-4-yl]pyridazin-3-yl]methyl]urea] | 7.08 | ≤ 4.70 |  | 6.80 | 7.29 | 6.59
CCOc1cc(NC(=O)NCc2cc(C)c(N3C[C@@H](C)O[C@@H](C)C3)nn2)cc(C)n1 [Compound 93, 1-[[6-[(2R,6S)-2,6-dimethyl-morpholin-4-yl]-5-methyl-pyridazin-3-yl]methyl]-3-(2-ethoxy-6-methyl-4-pyridyl)urca] | 5.98 |  | 5.18 | 5.66 | 6.12 | 5.66
CCOc1nc(C)cc(NC(=O)NCc2cc(C)c(N3C[C@@H](C)O[C@@H](C)C3)nn2)c1Cl [Compound 94, 1-(3-chloro-2-ethoxy-6-methyl-4-pyridyl)-3-[[6-[(2R,6S)-2,6-dimethyl-morpholin-4-yl]-5-methyl-pyridazin-3-yl]methyl]urea] | 7.57 |  | 6.32 | 6.29 | 6.99 | 5.23

— patent publication US20190388421A1, “NOVEL COMPOUNDS AND PHARMACEUTICAL COMPOSITIONS THEREOF FOR THE TREATMENT OF FIBROSIS” (Galapagos NV, priority 2016, published 2019)
